Measured values: the supplement of paper PMC4862054

How the values were obtained:
Conditions in all cases: incubation time: 72 h
MDA-MB-468 [1] = experiment: normalised response (% of control), CellTiter-Glo; higher = more viable cells (100 = DMSO, 0 = benzethonium chloride kill control)
Method in brief: (§1)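 Breast cancer cell lines in 20 µl suspension were added to 384-well plates containing compound at 5 concentrations, spaced in 10-fold steps across a 10,000-fold range chosen for each compound, and incubated for 72 h. CellTox Green fluorescence was read at 485/520 nm, followed by CellTiter-Glo luminescence after 10 min at room temperature. Signals on each plate were normalised so that 0.1 % DMSO equals 100 and a positive kill control equals 0. Every value in the table is the normalised signal at one concentration of the series.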

MFM-223 [2] = experiment: as above
Method in brief: as §1

Hs578T [3] = experiment: as above
Method in brief: as §1

CAL-51 [4] = experiment: as above
Method in brief: as §1

CAL-85-1 [5] = experiment: as above
Method in brief: as §1

HCC1937 [6] = experiment: as above
Method in brief: as §1

CAL-120 [7] = experiment: as above
Method in brief: as §1

CAL-148 [8] = experiment: as above
Method in brief: as §1

BT-549 [9] = experiment: as above
Method in brief: as §1

HCC1599 [10] = experiment: as above
Method in brief: as §1

BT-474 [11] = experiment: as above
Method in brief: as §1

MDA-MB-231 [12] = experiment: as above
Method in brief: as §1

DU-4475 [13] = experiment: as above
Method in brief: as §1

MDA-MB-436 [14] = experiment: as above
Method in brief: as §1

HCC1143 [15] = experiment: as above
Method in brief: as §1

SK-BR-3 [16] = experiment: as above
Method in brief: as §1

HDQ-P1 [17] = experiment: as above
Method in brief: as §1

MDA-MB-453 [18] = experiment: as above
Method in brief: as §1

MCF-10A = experiment: as above
Method in brief: as §1

MDA-MB-468 [19] = experiment: normalised viability (% of control), CellTiter-Blue; higher = more viable cells (100 = DMSO, 0 = benzethonium chloride kill control)
Method: (§2)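 DSRT, CellTiter-Blue viability, 72 h incubation. Signal is normalised to DMSO and benzethonium chloride controls. Value is the normalised response at dose 1.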

MFM-223 [20] = experiment: as above
Method: as §2

Hs578T [21] = experiment: as above
Method: as §2

CAL-51 [22] = experiment: as above
Method: as §2

CAL-85-1 [23] = experiment: as above
Method: as §2

HCC1937 [24] = experiment: as above
Method: as §2

CAL-120 [25] = experiment: as above
Method: as §2

CAL-148 [26] = experiment: as above
Method: as §2

BT-549 [27] = experiment: as above
Method: as §2

HCC1599 [28] = experiment: as above
Method: as §2

BT-474 [29] = experiment: as above
Method: as §2

MDA-MB-231 [30] = experiment: as above
Method: as §2

DU-4475 [31] = experiment: as above
Method: as §2

MDA-MB-436 [32] = experiment: as above
Method: as §2

HCC1143 [33] = experiment: as above
Method: as §2

SK-BR-3 [34] = experiment: as above
Method: as §2

HDQ-P1 [35] = experiment: as above
Method: as §2

MDA-MB-453 [36] = experiment: as above
Method: as §2

SMILES	normalised response (MDA-MB-468 [1])	normalised response (MFM-223 [2])	normalised response (Hs578T [3])	normalised response (CAL-51 [4])	normalised response (CAL-85-1 [5])	normalised response (HCC1937 [6])	normalised response (CAL-120 [7])	normalised response (CAL-148 [8])	normalised response (BT-549 [9])	normalised response (HCC1599 [10])	normalised response (BT-474 [11])	normalised response (MDA-MB-231 [12])	normalised response (DU-4475 [13])	normalised response (MDA-MB-436 [14])	normalised response (HCC1143 [15])	normalised response (SK-BR-3 [16])	normalised response (HDQ-P1 [17])	normalised response (MDA-MB-453 [18])	normalised response (MCF-10A)	normalised viability (MDA-MB-468 [19])	normalised viability (MFM-223 [20])	normalised viability (Hs578T [21])	normalised viability (CAL-51 [22])	normalised viability (CAL-85-1 [23])	normalised viability (HCC1937 [24])	normalised viability (CAL-120 [25])	normalised viability (CAL-148 [26])	normalised viability (BT-549 [27])	normalised viability (HCC1599 [28])	normalised viability (BT-474 [29])	normalised viability (MDA-MB-231 [30])	normalised viability (DU-4475 [31])	normalised viability (MDA-MB-436 [32])	normalised viability (HCC1143 [33])	normalised viability (SK-BR-3 [34])	normalised viability (HDQ-P1 [35])	normalised viability (MDA-MB-453 [36])
O=NN(CCCl)C(=O)NCCCl [Carmustine] (1 nM)	98.1%	94.2%	100%	87.1%	94.4%	97.6%	100%	89.3%	97.1%	103%	97%	98.2%	103%	80%	97.8%	90.5%	99.3%	109%	87.3%	106%	93.5%	134%	107%	87.8%	88.8%	94.2%	115%	103%	97%	87.5%	133%	120%	75.7%	90.5%	99.8%	111%	108%
CC1=C2C[C@H]3[C@@H](CC=C4C[C@@H](O)CC[C@@]43C)[C@@H]2CC[C@]12O[C@@H]1C[C@H](C)CN[C@H]1[C@H]2C [Cyclopamine] (1 nM)	101%	103%	103%	107%	100%	106%	107%	123%	104%	98.1%	103%	103%	106%	106%	103%	115%	103%	111%	108%	103%	97.5%	121%	109%	94.5%	109%	94%	117%	111%	96.5%	118%	100%	120%	126%	97.4%	97.3%	135%	102%
CC1(C)CNc2cc(NC(=O)c3cccnc3NCc3ccncc3)ccc21 [Motesanib] (1 nM)	103%	101%	96.9%	107%	96%	93.1%	94%	89.4%	99.7%	91.5%	91.2%	97.1%	99.9%	94.8%	99%	92.1%	93.5%	103%	91.8%	87.1%	77.8%	103%	110%	75.9%	93.4%	79.6%	96.5%	103%	84.8%	96.6%	76.7%	94.1%	71.3%	86.3%	82.2%	84.2%	85%
CC[C@@H]1C(=O)OC[C@@H]1Cc1cncn1C [Pilocarpine] (4 nM)	98.4%	101%	103%	123%	95%	92.8%	94%	96.4%	101%	76.7%	91.7%	96.1%	100%	79.3%	93.7%	99.2%	95.7%	111%	94.6%	104%	88.8%	92.9%	108%	96.3%	94.3%	100%	108%	103%	85.4%	74.9%	97.1%	99.7%	113%	97.6%	91.8%	133%	99.1%
CC(C)(C)c1cnc(CSc2cnc(NC(=O)C3CCNCC3)s2)o1 [SNS-032] (1 nM)	92%	92%	97.6%	86.2%	105%	90.8%	91.2%	92.2%	101%	96.3%	92.2%	97.5%	98.2%	84.1%	97.3%	90.8%	95%	99.2%	95.5%	104%	93.1%	104%	113%	92.7%	103%	86.2%	113%	113%	101%	101%	97.7%	99%	113%	85.9%	101%	102%	103%
Cn1cnc2c(F)c(Nc3ccc(Br)cc3Cl)c(C(=O)NOCCO)cc21 [Selumetinib] (1 nM)	93.8%	94.9%	99%	99.8%	104%	89.5%	93.3%	87.8%	103%	93.2%	84.7%	97%	95.5%	80.8%	89.6%	96.5%	91.4%	111%	81.2%	101%	83.6%	107%	113%	90.1%	100%	81%	107%	102%	98.5%	104%	89%	102%	97.6%	90.6%	94%	107%	109%
Nc1nc2[nH]cnc2c(=S)[nH]1 [Thioguanine] (1 nM)	94.5%	94.1%	101%	77.6%	92.8%	92.8%	93.3%	95.3%	104%	105%	98.1%	96.2%	96.7%	94%	98.9%	94.2%	98.4%	98.1%	101%	104%	98.4%	136%	104%	98.1%	90.2%	97.5%	107%	98.8%	110%	100%	92.8%	105%	101%	95.3%	99.9%	111%	104%
